The source of these data is patent publication US12383479B2 (LG HOUSEHOLD & HEALTH CARE LTD., priority 2021, dated 2025).

A short description of data set [1]: Experimental Example 1: solubility of palmitoylethanolamide in each polyol solvent. The data set is classed as physicochemical. The settings on record: 25° C. for 24 hours. The source says:
Polyols representatively used as solvents of cosmetics were chosen, which were propanediol, glycerin, […], 2,3-butanediol, pentylene glycol, dipropylene glycol, propylene glycol, butylene glycol, ethoxydiglycerol, and 1,2-hexanediol.

Data set [2] can be described thus: Experimental Example 2: solubility of palmitoylethanolamide with combined use of selected solvents and 2,3-butanediol. The data set is classed as physicochemical. Conditions: 1 wt % palmitoylethanolamide, 25° C. for 4 weeks, regardless of weight ratio.
The conditions of data set [3]: 25° C.; cited from earlier work.
The mark [4] stands for this setting: 0.5 wt % and 1 wt % palmitoylethanolamide.

In brackets after ≈: the same amount, converted by molar mass.

With `CCCCCCCCCCCCCCCC(=O)NCCO` [palmitoylethanolamide, N-(2-hydroxyethyl)hexadecanamide], in data set [1] (setting [4]), the “solubility in 1,2-hexanediol” value was “good solubility” and the “solubility in pentylene glycol” value is listed as “good solubility”. Besides, the “solubility in the remaining polyols” value in data set [1] (propanediol, glycerin, ethanol, 2,3-butanediol, dipropylene glycol, propylene glycol, butylene glycol, ethoxydiglycerol, 0.5 and 1 wt %) is “precipitation”. In data set [2], the “solubility in 1,2-hexanediol combined with 2,3-butanediol” value is “dissolved” and the “solubility in pentylene glycol combined with 2,3-butanediol” value is on record as “dissolved”. The water solubility in data set [3] is 0.4431 µg/mL (≈ 1.48 µM).
